# PubChem BioAssay AID1996
# Conditions: buffer; pH 7.4; 200.0 µM
row,Structure (SMILES),solubility kinetic
1,Cc1cc(C)cc(NC(=O)Nc2cccnc2)c1,> 36.2 µg/mL
2,COc1ccc(CCNC(=O)c2ccc3nc[nH]c3c2)cc1,> 44.3 µg/mL
3,O=C(Nc1ccc(F)cc1F)N1CCCN(c2ccc(C(F)(F)F)cn2)CC1,7.3 µg/mL
4,CC(=O)OC1(c2ccccc2)CCN(C)CC1(C)C.Cl (configuration not stated),44.2 µg/mL
5,CCNC(=S)Nc1ccc(OC(F)(F)F)cc1,> 39.6 µg/mL
6,O=C(O)C1C2C=CC(C2)C1C(=O)Nc1cccc(C(F)(F)F)c1 (configuration not stated),10.3 µg/mL
7,CC(C)(C)c1ccc(NC(=O)c2ccsc2)cc1,1.1 µg/mL
8,Cc1nc2ccc(-c3nc4ccc(N)cc4[nH]3)cc2[nH]1,39.4 µg/mL
9,COc1ccc(-n2c(CN3CCOCC3)nc3ccccc3c2=O)c(OC)c1,> 57.2 µg/mL
10,COc1ccccc1NC(=O)N1C[C@@H]2C[C@@H](C1)c1cccc(=O)n1C2,> 50.9 µg/mL
11,CC1CCCCC1NC(=O)C(C)N1C(=O)c2ccccc2C1=O (configuration not stated),> 47.2 µg/mL
12,COc1ccc(OC)c(NC(=O)NC2CCCc3ccccc32)c1 (configuration not stated),0.7 µg/mL
13,CCOc1ncccc1C(=O)OCC(=O)NCc1ccc2c(c1)OCO2,> 53.8 µg/mL
14,Cc1nc(N2CCN(C(=O)c3ccco3)CC2)[nH]c(=O)c1C,> 45.3 µg/mL
15,O=C(Nc1cc([N+](=O)[O-])ccc1O)NC1CCS(=O)(=O)C1 (configuration not stated),> 47.3 µg/mL
16,Cc1nc2ccc(NC(=O)CSc3ccccc3)cc2s1,46 µg/mL
17,Cl.NCc1ccc2[nH]c(=O)[nH]c2c1,> 29.9 µg/mL
18,O=C(COC(=O)CNC(=O)C1CCCCC1)NCc1ccc(Cl)cc1,49.5 µg/mL
19,O=C1CSC(c2ccccc2F)N1c1ccccc1F (configuration not stated),3.2 µg/mL
20,O=C1CN(/N=C/c2ccc([N+](=O)[O-])o2)C(=O)N1,> 35.7 µg/mL
21,Cc1ccc(NC(=S)NC(=O)c2cncc(Br)c2)c(C)c1,4.5 µg/mL
22,COc1ccc(C(=O)NCCc2cn3ccccc3n2)cc1,42.9 µg/mL
23,Cc1ccc(CC2C(=O)N(c3cc(C)ccc3C)C(=O)C2C)cc1 (configuration not stated),4.6 µg/mL
24,O=C(O)CCC(=O)Nc1ccc(Br)cc1C(=O)c1ccc(Cl)cc1,44.9 µg/mL

row,Structure (SMILES),solubility kinetic
1,CC(C)N(Cc1ccccc1)C(=O)COC(=O)c1cnc(Cl)c(Cl)c1,33.9 µg/mL
2,CC(NC(=O)CSc1ncccn1)c1ccc2c(c1)OCO2 (configuration not stated),> 47.6 µg/mL
3,Cc1ccccc1C1NC(=S)NC2=C1C(=O)CCC2 (configuration not stated),> 40.9 µg/mL
4,COc1ccc(NC(=O)c2cc3ccccc3o2)cc1S(=O)(=O)N1CCCCC1,9.2 µg/mL
5,CNC(=O)c1c(NC(=O)c2ccco2)sc2c1CCC2,3.3 µg/mL
6,CCOCCCNc1c(CC)c(C)c(C#N)c2nc3ccccc3n12,6.5 µg/mL
7,CCc1ccccc1NC(=O)CCC(=O)c1cccs1,32.1 µg/mL
8,CC(NC(=O)C(C)N1C(=O)c2ccccc2C1=O)c1ccccc1 (configuration not stated),> 48.4 µg/mL
9,CCCCNc1nc2cccnc2s1,30.4 µg/mL
10,O/N=C/c1ccn(-c2ccc(Br)cc2)c1,2.6 µg/mL
11,O=C(NCC1CCCO1)c1cc2c(=O)[nH]c3ccccc3c2s1 (configuration not stated),2.6 µg/mL
12,O=C(CNC(=O)c1cccc(F)c1)N/N=C/c1cccnc1,> 45 µg/mL
13,COCC(=O)Nc1ccc2c(c1)OCC(=O)N2Cc1ccccc1F,46.4 µg/mL
14,CCN(CC)S(=O)(=O)c1cccc(NC(=O)COC(=O)c2cncc(Br)c2)c1,40.3 µg/mL
15,COc1ccccc1-n1c(-c2ccccc2Cl)nc2ccccc2c1=O,36.2 µg/mL
16,CCOc1ccc(NC(=O)NC2CCCCCCC2)cc1,0.9 µg/mL
17,COc1cc(OC)c(C(=O)N2CCCC2)cc1OC,> 39.8 µg/mL
18,Cc1nc2cc(NC(=O)c3ccc(Cl)cc3)ccc2n1C,1 µg/mL
19,COS(=O)(=O)[O-].Cn1c(-c2ccc3ccccc3n2)[n+](C)c2ccccc21,> 57.8 µg/mL
20,O=C1CNC(=S)N1Cc1cccc(Cl)c1,> 36.1 µg/mL
21,CCCCNC(=O)Nc1ccc(C2SCCS2)cc1,9.9 µg/mL
22,CC(C)NCC(O)c1ccc(NS(C)(=O)=O)cc1.Cl (configuration not stated),> 46.3 µg/mL
23,O=C(NCCC1=CCCCC1)C1CCN(S(=O)(=O)N2CCCC2)CC1,50.7 µg/mL
24,CCC1(Cc2ccccc2)NC(=O)c2ccccc2O1 (configuration not stated),36.5 µg/mL

row,Structure (SMILES),solubility kinetic
1,COC(=O)C1C(O)=C(C=Nc2ccccc2)C(=O)CC1(C)C (configuration not stated),> 45.2 µg/mL
2,COC(=O)CNC(=O)COC(=O)/C=C/c1ccc(F)cc1,> 44.3 µg/mL
3,COc1ccccc1NS(=O)(=O)c1ccc(C(=O)NCC(c2ccc(F)cc2)N2CCOCC2)cc1 (configuration not stated),> 77 µg/mL
4,CCc1nc(CN2CCN(c3cc(C(F)(F)F)ccn3)CC2)c(C)[nH]1,47.6 µg/mL
5,COc1ccc(Cl)cc1N(CC(=O)N1CCCC1)S(C)(=O)=O,51.5 µg/mL
6,COc1ccc(C(=O)N2CCC3(CC2)OCCO3)cc1,> 41.6 µg/mL
7,CN(C)/C(=N\S(=O)(=O)c1ccc(Br)cc1)c1ccccc1,50.2 µg/mL
8,Cc1csc(NC(=O)c2ccc(Cl)nc2)n1,> 38.1 µg/mL
9,CCOC(=O)c1cnc(COc2ccccc2Cl)[nH]c1=O,> 46.3 µg/mL
10,O=C(CCc1nc(-c2ccccc2)no1)Nc1cccnc1,> 44.1 µg/mL
11,O=C(CSc1nccc(-c2cccs2)n1)Nc1cccc(Cl)c1,2.2 µg/mL
12,Cc1ncc([N+](=O)[O-])n1CCN1C(=O)c2ccccc2C1=O,44.3 µg/mL
13,Cc1ccccc1C(=O)Nc1cccc(NC(=O)c2ccccc2[N+](=O)[O-])c1,1.2 µg/mL
14,CCOC(=O)CSc1nc(-c2ccccc2)ns1,6.3 µg/mL
15,O=C(CCN1C(=O)C2C3CCC(C3)C2C1=O)Nc1ccc(F)cc1 (configuration not stated),36.8 µg/mL
16,Cc1cc(C)c(S(=O)(=O)N2CCN(C(=O)N(C)C)CC2)c(C)c1,> 50.9 µg/mL
17,Cc1ccc(/C=N/NC(=O)c2ccc3nc[nH]c3c2)s1,> 42.7 µg/mL
18,COc1ccc(CN2CCCCCC2)cc1,26.2 µg/mL
19,Cc1csc(NC(=O)CSc2nncc(=O)n2N)n1,> 44.8 µg/mL
20,O=C(c1ccc2nccnc2c1)N1CCN(c2ccccc2)CC1,> 47.8 µg/mL
21,CCN(CC)CCOCCOc1ccc(Cl)c2ccccc12,32.2 µg/mL
22,CC(C)C(=O)NC(NC1CCS(=O)(=O)C1)C(Cl)(Cl)Cl (configuration not stated),> 52.8 µg/mL
23,Cc1ccccc1NC1=NC(=S)N(CC(N)=O)C12CCOC(C)(C)C2 (configuration not stated),> 54.1 µg/mL
24,CCOc1ccc(CO/N=C/c2c(C)[nH]c(=O)[nH]c2=O)cc1,5.8 µg/mL

row,Structure (SMILES),solubility kinetic
1,O=C(Nc1cccc(F)c1)c1ccc2ncsc2c1,39.8 µg/mL
2,O=C1CC2(CCN(C(=O)COc3ccc(F)cc3)CC2)Oc2ccccc21,> 55.4 µg/mL
3,CC(NC(=O)COC(=O)CN1C(=O)C2CCCCC2C1=O)c1ccccc1 (configuration not stated),> 55.9 µg/mL
4,N#Cc1c(-c2ccc(Cl)cc2)ccnc1N1CCOCC1,3 µg/mL
5,CCCCn1c(N)c(N(C)C(=O)C2CC(=O)N(Cc3ccco3)C2)c(=O)[nH]c1=O (configuration not stated),> 60.5 µg/mL
6,COc1ccc(-c2cc(C(F)(F)F)nc(-n3ccnc3)n2)cc1,0.6 µg/mL
7,CC(C)Cc1ccc(S(=O)(=O)NCC2CCCO2)cc1 (configuration not stated),33.6 µg/mL
8,O=C(CCS(=O)(=O)c1ccc(Cl)cc1)NC1CCCC1,> 47.4 µg/mL
9,N#Cc1ccc(C(=O)NC(=S)N2CCOCC2)cc1,> 41.3 µg/mL
10,COC(C(=O)Nc1ccc(Br)cc1F)c1ccccc1 (configuration not stated),26.1 µg/mL
11,O=C(CN1C(=O)C2CCCCC2C1=O)Nc1cccc(C(F)(F)F)c1 (configuration not stated),> 53.1 µg/mL
12,CC(C)(C)NC(=S)NCC1CC1,> 27.9 µg/mL
13,CN(C)C(C(=O)Nc1cc(Cl)cc(Cl)c1)c1ccccc1 (configuration not stated),19.2 µg/mL
14,COc1ccc(CNC(=O)Cc2cn(C)c3ccccc23)c(OC)c1,> 50.8 µg/mL
15,O=C(COC(=O)Cc1ccc(Br)cc1)Nc1ccc(Cl)cn1,3.9 µg/mL
16,O=C(COC(=O)COc1ccccc1)NC1CCS(=O)(=O)C1 (configuration not stated),> 49.1 µg/mL
17,Cc1cc(NC(=O)COC(=O)CC2CCCC2)c([N+](=O)[O-])cc1C,3 µg/mL
18,COc1ccc(CCNC(=O)CNC(=O)c2ccco2)cc1,> 45.3 µg/mL
19,CCCCOc1ccc(-c2ncc([N+](=O)[O-])cn2)cc1,< 0.2 µg/mL
20,O=C(O)c1ccccc1C(=O)Nc1ccccc1NC(=O)c1ccccc1C(=O)O,> 60.7 µg/mL
21,Cc1ccc(C(=O)OCC(=O)NCC2CCCO2)c(C)c1 (configuration not stated),> 43.7 µg/mL
22,CC(=O)c1cccc(NC(=O)COc2cc(C)on2)c1,> 41.1 µg/mL
23,COc1ccccc1CCNC(=O)c1nccnc1C(=O)O,> 45.2 µg/mL
24,CC(=O)N1CCN(c2ccc(NC(=O)c3ccc(F)cc3)cc2)CC1,10.6 µg/mL

row,Structure (SMILES),solubility kinetic
1,CC1(C)C(=O)Nc2ccccc2N1C(=O)COC(=O)Cc1ccc(Cl)c(Cl)c1,10.1 µg/mL
2,CCCCn1c(N)c(N(CC)C(=O)CCNC(=O)c2ccc(Cl)cc2)c(=O)[nH]c1=O,> 65.4 µg/mL
3,COc1ccc(CNC(=O)c2sc(=S)n(-c3ccccc3)c2N)cc1,0.7 µg/mL
4,Cc1cccn2c(=O)nc(SCC(=O)N3CC(C)OC(C)C3)nc12 (configuration not stated),51.7 µg/mL
5,COCC(=O)OCc1cc2cccc(C)c2[nH]c1=O,38.9 µg/mL
6,Cc1ccc(C(C)NC(=O)c2cc3ccccc3oc2=O)cc1C (configuration not stated),0.8 µg/mL
7,O=C(Cc1ccccc1[N+](=O)[O-])OCC(=O)c1ccccc1Br,39.1 µg/mL
8,Cc1cc(=O)oc2cc(OCC(=O)Nc3cccnc3)ccc12,10.5 µg/mL
9,CCC(C)(C)c1ccc(Oc2ccc(N)cc2)cc1,4.2 µg/mL
10,CN(Cc1ccccc1F)C(=O)c1sccc1-c1ccccc1,14 µg/mL
11,Cc1ccnc(N2C(=O)c3ccccc3C2=O)c1,> 35.7 µg/mL
12,COc1ccc(CNC(=O)COC(=O)c2ccccn2)cc1,> 45 µg/mL
13,CCOC(=O)c1cc(S(=O)(=O)NC2CCCCC2)cn1C,43.9 µg/mL
14,Cc1c(C)n(-c2ccccc2)c2ncnc(NCCN(C)C)c12,> 46.4 µg/mL
15,CCOc1ccccc1NC(=O)Nc1cccc(S(N)(=O)=O)c1,> 50.3 µg/mL
16,CCN1CCN(c2nc(-c3ccccc3)c3ccccc3n2)CC1,46.1 µg/mL
17,O=[N+]([O-])/C=C/c1ccc2c(ccn2Cc2ccccc2)c1,0.6 µg/mL
18,Cc1ccc(C)c(NC(=O)/C(C#N)=C/c2ccc[nH]2)c1,3.7 µg/mL
19,CCCCn1c(N)c(N(C)C(=O)c2c(C)nn(-c3ccccc3)c2C)c(=O)[nH]c1=O,> 61.6 µg/mL
20,Cc1ccccc1OCC(=O)OCC(=O)NCc1ccccc1Cl,14.1 µg/mL
21,C[N+](C)(C)CCOP(=O)([O-])OP(=O)([O-])OC[C@H]1O[C@@H](n2ccc(N)nc2=O)[C@H](O)[C@@H]1O.[Na+],3.7 µg/mL
